From patent publication US20230073777A1, “CYCLIC-AMP RESPONSE ELEMENT BINDING PROTEIN (CBP) AND/OR ADENOVIRAL E1A BINDING PROTEIN OF 300 KDA (P300) DEGRADATION COMPOUNDS AND METHODS OF USE” (CULLGEN (SHANGHAI), INC., priority 2019, published 2023)
Like-named read-outs stand apart in the source and are kept apart here.

Key:
[1] = biological target: P300 (Homo sapiens, UniProt Q09472); test: Immunoblotting of P300 protein levels in LNCaP or 22RV1 cells; format: cell-based; parameters: LNCaP or 22RV1 cells that express CBP/P300 proteins were treated with GNE-781 or the bivalent compounds; endogenous in cells; host or cells: LNCaP (clone FGC) or 22RV1 cells; settings: read-out: Degradation (10 nM)
Protocol: Specific exemplary bivalent compounds were characterized in LNCaP or 22RV1 cells. LNCaP or 22RV1 cells that express CBP/P300 proteins were treated with GNE-781 or the bivalent compounds disclosed herein (P-001 to P-174) for indicated hours. Cells were collected, lysed and subject to immunoblotting using an antibody specific to P300 or CBP proteins. Tubulin or vinculin was included as the loading control. DMSO was used as the negative control.
Cultured cells or tissue chunks were washed with cold PBS once and lysed in cold RIPA buffer supplemented with protease inhibitors and phosphatase inhibitors (Beyotime Biotechnology). The solutions were then incubated at 4° C. for 30 minutes with gentle agitation to fully lyse cells. Cell lysates were centrifuged at 13,000 rpm for 10 minutes at 4° C. and pellets were discarded. Total protein concentrations in the lysates were determined by BCA assays (Beyotime Biotechnology). Cell lysates were mixed with Laemmli loading buffer to 1× and heated at 99° C. for 5 min. Proteins were resolved on SDS-PAGE and visualized by chemiluminescence. Images were taken by a ChemiDoc MP Imaging system (Bio-Rad). Protein bands were quantitated using the accompanied software provided by Bio-Rad.

[2] = system: LNCaP cells; test: LNCaP cell viability assay (CellTiter-Glo); format: cell-based; settings: Homo sapiens, 72 h, LNCaP prostate cancer cell viability inhibition, 3 days
Protocol: LNCaP cells seeded in 96-well plates were treated with 10 μM GNE-781 or selected bivalent compounds, i.e. P-001, P-002, and P-019, following a 12-point 3-fold serial dilution. Three days after treatment, cell viability was determined using the CellTiter-Glo kit (Promega) following manufacturer's instructions. Cell viability was normalized to the mean values of 3 replicates of untreated cells. Dose-dependent response was analyzed following the least-squares non-linear regression method using the GraphPad Prism 5.0 software.
LNCaP cells were treated with GNE-781 or selected bivalent compounds for 3 days at indicated concentrations following a 3-fold serial dilution.
Cells were seeded at a density of 5000 cells per well in 96-well assay plates and treated with test compounds following a 12-point 3-fold serial dilution. Three days later, cell viability was determined using the CellTiter-Glo assay kit according to the manufacturer's instructions. The dose-response curves were determined and IC50 values were calculated using the GraphPad Prism software following a nonlinear regression (least squares fit) method.

[3] = percentage of inhibition of p300 at 10 nM (Table 3)
[4] = percentage of inhibition of p300 at 10 nM (Table 2)

P300, sequence (Q09472 whole entry): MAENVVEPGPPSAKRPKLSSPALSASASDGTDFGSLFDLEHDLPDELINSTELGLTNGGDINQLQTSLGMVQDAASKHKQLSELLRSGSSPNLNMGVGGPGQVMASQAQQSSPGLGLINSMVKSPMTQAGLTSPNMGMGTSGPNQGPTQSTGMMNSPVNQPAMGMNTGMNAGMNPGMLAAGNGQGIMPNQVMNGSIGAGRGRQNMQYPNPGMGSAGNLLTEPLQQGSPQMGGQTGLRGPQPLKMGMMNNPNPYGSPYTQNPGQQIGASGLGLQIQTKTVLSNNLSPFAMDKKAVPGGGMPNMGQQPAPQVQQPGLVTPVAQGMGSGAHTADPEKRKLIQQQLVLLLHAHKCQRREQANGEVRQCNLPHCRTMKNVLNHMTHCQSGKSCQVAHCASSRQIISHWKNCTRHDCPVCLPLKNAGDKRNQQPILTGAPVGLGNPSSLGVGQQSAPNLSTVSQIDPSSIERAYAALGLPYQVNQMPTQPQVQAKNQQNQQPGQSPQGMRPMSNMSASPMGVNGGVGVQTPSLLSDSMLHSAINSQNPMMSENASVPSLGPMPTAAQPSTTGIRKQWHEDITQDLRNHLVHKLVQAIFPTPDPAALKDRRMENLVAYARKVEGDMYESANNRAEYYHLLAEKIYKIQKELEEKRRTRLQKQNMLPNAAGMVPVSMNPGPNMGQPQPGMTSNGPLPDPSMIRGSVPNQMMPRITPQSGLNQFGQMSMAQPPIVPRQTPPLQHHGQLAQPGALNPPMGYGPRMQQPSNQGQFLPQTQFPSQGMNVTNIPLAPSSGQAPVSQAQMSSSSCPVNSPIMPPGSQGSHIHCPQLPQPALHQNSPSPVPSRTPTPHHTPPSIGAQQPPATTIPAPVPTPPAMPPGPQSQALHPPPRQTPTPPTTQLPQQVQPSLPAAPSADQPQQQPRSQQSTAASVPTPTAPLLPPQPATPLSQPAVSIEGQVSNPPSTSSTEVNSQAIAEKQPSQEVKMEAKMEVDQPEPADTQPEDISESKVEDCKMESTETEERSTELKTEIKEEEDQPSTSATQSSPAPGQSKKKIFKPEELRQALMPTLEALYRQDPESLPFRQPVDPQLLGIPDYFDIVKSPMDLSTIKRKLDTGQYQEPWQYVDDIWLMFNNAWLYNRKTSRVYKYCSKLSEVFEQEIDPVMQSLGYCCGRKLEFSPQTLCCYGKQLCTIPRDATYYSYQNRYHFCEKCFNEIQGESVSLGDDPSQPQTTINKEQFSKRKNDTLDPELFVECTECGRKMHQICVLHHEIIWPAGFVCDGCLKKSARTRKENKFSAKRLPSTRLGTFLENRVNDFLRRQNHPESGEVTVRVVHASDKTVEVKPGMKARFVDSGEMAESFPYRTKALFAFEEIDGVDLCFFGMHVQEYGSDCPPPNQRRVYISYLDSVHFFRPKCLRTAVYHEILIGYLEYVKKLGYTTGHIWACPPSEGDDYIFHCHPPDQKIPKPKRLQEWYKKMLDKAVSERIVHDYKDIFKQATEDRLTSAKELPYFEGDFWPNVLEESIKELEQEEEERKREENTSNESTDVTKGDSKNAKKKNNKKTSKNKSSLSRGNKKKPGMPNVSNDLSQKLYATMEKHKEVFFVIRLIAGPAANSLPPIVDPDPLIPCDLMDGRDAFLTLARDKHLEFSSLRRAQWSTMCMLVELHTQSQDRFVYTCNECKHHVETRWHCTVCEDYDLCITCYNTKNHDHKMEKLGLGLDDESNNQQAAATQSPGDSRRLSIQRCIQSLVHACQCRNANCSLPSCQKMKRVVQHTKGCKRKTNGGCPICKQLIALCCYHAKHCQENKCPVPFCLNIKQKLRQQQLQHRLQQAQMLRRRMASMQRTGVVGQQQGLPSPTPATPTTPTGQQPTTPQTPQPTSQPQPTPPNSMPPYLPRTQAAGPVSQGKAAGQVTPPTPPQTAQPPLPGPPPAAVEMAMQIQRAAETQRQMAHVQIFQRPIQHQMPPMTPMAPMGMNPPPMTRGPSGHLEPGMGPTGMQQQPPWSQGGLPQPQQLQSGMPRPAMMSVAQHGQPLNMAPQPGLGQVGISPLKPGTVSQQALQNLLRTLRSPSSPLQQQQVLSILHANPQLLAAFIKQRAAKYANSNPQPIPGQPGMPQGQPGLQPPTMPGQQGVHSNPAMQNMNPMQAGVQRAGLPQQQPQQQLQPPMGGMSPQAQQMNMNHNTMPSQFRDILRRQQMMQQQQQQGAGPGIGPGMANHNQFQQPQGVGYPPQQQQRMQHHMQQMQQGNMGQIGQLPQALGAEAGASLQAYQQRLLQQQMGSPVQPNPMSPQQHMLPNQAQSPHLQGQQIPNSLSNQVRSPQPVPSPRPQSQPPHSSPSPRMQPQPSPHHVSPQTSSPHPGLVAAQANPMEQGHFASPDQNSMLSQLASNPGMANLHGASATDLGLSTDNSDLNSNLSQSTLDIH

Row | Compound | inhibition at 0.01 µM [1, 3] [%] | IC50 ([2]; CellTiter-Glo (Table 3)) [nM] | inhibition at 0.01 µM [1, 4] [%] | IC50 ([2]; CellTiter-Glo (Table 2)) [nM] | inhibition at 0.01 µM [1] [%]
1 | CNC(=O)N1CCc2c(c(N3CCCc4cc(-c5cnn(C)c5)c(C(F)F)cc43)nn2C2CCN(C(=O)CCCCC(=O)N[C@H](C(=O)N3C[C@H](O)C[C@H]3C(=O)NCc3ccc(-c4scnc4C)cc3)C(C)(C)C)CC2)C1 [P-058, 3-(7-(Difluoromethyl)-6-(1-methyl-1H-pyrazol-4-yl)-3,4-dihydroquinolin-1(2H)-yl)-1-(1-(6-(((S)-1-((2S,4R)-4-hydroxy-2-((4-(4-methylthiazol-5-yl)benzyl)carbamoyl)pyrrolidin-1-yl)-3,3-dimethyl-1-oxobutan-2-yl)amino)-6-oxohexanoyl)piperidin-4-yl)-N-methyl-1,4,6,7-tetrahydro-5H-pyrazolo[4,3-c]pyridine-5-carboxamide] | < 20 | 67.8 |  |  | 
2 | CNC(=O)N1CCc2c(c(N3CCCc4cc(-c5cnn(CC(=O)NCCCCCCNc6ccc7c(c6)C(=O)N(C6CCC(=O)NC6=O)C7=O)c5)c(C(F)F)cc43)nn2C2CCOCC2)C1 (stereo not shown) [P-020] |  |  | > 80 | 3.3 | 
3 | CNC(=O)N1CCc2c(c(N3CCCc4cc(-c5cnn(CC(=O)NCCOCCOCCOCCOCCNc6cccc7c6C(=O)N(C6CCC(=O)NC6=O)C7=O)c5)c(C(F)F)cc43)nn2C2CCOCC2)C1 (stereo not shown) [P-024, 3-(7-(Difluoromethyl)-6-(1-(17-((2-(2,6-dioxopiperidin-3-yl)-1,3-dioxoisoindolin-4-yl)amino)-2-oxo-6,9,12,15-tetraoxa-3-azaheptadecyl)-1H-pyrazol-4-yl)-3,4-dihydroquinolin-1(2H)-yl)-N-methyl-1-(tetrahydro-2H-pyran-4-yl)-1,4,6,7-tetrahydro-5H-pyrazolo[4,3-c]pyridine-5-carboxamide] |  |  | < 20 | 524 | 
4 | CC(=O)N1CCc2c(c(N3CCCc4cc(-c5cnn(C)c5)c(C(F)F)cc43)nn2C2CCN(C(=O)CCCCCCCNc3ccc4c(c3)n(C)c(=O)n4C3CCC(=O)NC3=O)CC2)C1 (stereo not shown) [P-161] | > 80 | 0.1 |  |  | 
5 | CNC(=O)N1CCc2c(c(N3CCCc4cc(-c5cnn(CC(=O)NCCCCCCCCCC(=O)NC(C(=O)N6C[C@H](O)C[C@H]6C(=O)NCc6ccc(-c7scnc7C)cc6)C(C)(C)C)c5)c(C(F)F)cc43)nn2C2CCOCC2)C1 (stereo in doubt) [P-049, 3-(7-(Difluoromethyl)-6-(1-(2-((10-(((S)-1-((2S,4R)-4-hydroxy-2-((4-(4-methylthiazol-5-yl)benzyl)carbamoyl)pyrrolidin-1-yl)-3,3-dimethyl-1-oxobutan-2-yl)amino)-10-oxodecyl)amino)-2-oxoethyl)-1H-pyrazol-4-yl)-3,4-dihydroquinolin-1(2H)-yl)-N-methyl-1-(tetrahydro-2H-pyran-4-yl)-1,4,6,7-tetrahydro-5H-pyrazolo[4,3-c]pyridine-5-carboxamide] |  |  | < 20 | 234 | 
6 | CNC(=O)N1CCc2c(c(N3CCCc4cc(-c5cnn(CC(=O)NCCCCCCCCC(=O)N[C@H](C(=O)N6C[C@H](O)C[C@H]6C(=O)NCc6ccc(-c7scnc7C)cc6)C(C)(C)C)c5)c(C(F)F)cc43)nn2C2CCOCC2)C1 [P-081, 3-(7-(Difluoromethyl)-6-(1-(2-((9-(((S)-1-((2S,4R)-4-hydroxy-2-((4-(4-methylthiazol-5-yl)benzyl)carbamoyl)pyrrolidin-1-yl)-3,3-dimethyl-1-oxobutan-2-yl)amino)-9-oxononyl)amino)-2-oxoethyl)-1H-pyrazol-4-yl)-3,4-dihydroquinolin-1(2H)-yl)-N-methyl-1-(tetrahydro-2H-pyran-4-yl)-1,4,6,7-tetrahydro-5H-pyrazolo[4,3-c]pyridine-5-carboxamide] | < 20 | 469 |  |  | 
7 | CC(=O)N1CCc2c(c(N3CCCc4cc(-c5cnn(C)c5)c(C(F)F)cc43)nn2C2CCN(C(=O)CCCCCCCn3c(=O)n(C4CCC(=O)NC4=O)c4ccccc43)CC2)C1 (stereo not shown) [P-135, 3-(3-(8-(4-(5-acetyl-3-(7-(difluoromethyl)-6-(1-methyl-1H-pyrazol-4-yl)-3,4-dihydroquinolin-1(2H)-yl)-4,5,6,7-tetrahydro-1H-pyrazolo[4,3-c]pyridin-1-yl)piperidin-1-yl)-8-oxooctyl)-2-oxo-2,3-dihydro-1H-benzo[d]imidazol-1-yl)piperidine-2,6-dione] |  | 0.7 |  |  | > 80
8 | CNC(=O)N1CCc2c(c(N3CCCc4cc(-c5cnn(CC(=O)NCCCCCC(=O)N[C@H](C(=O)N6C[C@H](O)C[C@H]6C(=O)NCc6ccc(-c7scnc7C)cc6)C(C)(C)C)c5)c(C(F)F)cc43)nn2C2CCOCC2)C1 [P-047, 3-(7-(Difluoromethyl)-6-(1-(2-((6-(((S)-1-((2S,4R)-4-hydroxy-2-((4-(4-methylthiazol-5-yl)benzyl)carbamoyl)pyrrolidin-1-yl)-3,3-dimethyl-1-oxobutan-2-yl)amino)-6-oxohexyl)amino)-2-oxoethyl)-1H-pyrazol-4-yl)-3,4-dihydroquinolin-1(2H)-yl)-N-methyl-1-(tetrahydro-2H-pyran-4-yl)-1,4,6,7-tetrahydro-5H-pyrazolo[4,3-c]pyridine-5-carboxamide] |  |  | < 20 | 2560 | 
9 | CC(=O)N1CCc2c(c(N3CCCc4cc(-c5cnn(C)c5)c(C(F)F)cc43)nn2C2CCN(CCN3CCOC(CNc4cccc5c4C(=O)N(C4CCC(=O)NC4=O)C5=O)C3)CC2)C1 (stereo not shown) [P-142] | > 80 | 0.3 |  |  | 
10 | CNC(=O)N1CCc2c(c(N3CCCc4cc(-c5cnn(C)c5)c(C(F)F)cc43)nn2C2CCN(C(=O)CCOCCNc3cccc4c3C(=O)N(C3CCC(=O)NC3=O)C4=O)CC2)C1 (stereo not shown) [P-051, 3-(7-(Difluoromethyl)-6-(1-methyl-1H-pyrazol-4-yl)-3,4-dihydroquinolin-1(2H)-yl)-1-(1-(3-(2-((2-(2,6-dioxopiperidin-3-yl)-1,3-dioxoisoindolin-4-yl)amino)ethoxy)propanoyl)piperidin-4-yl)-N-methyl-1,4,6,7-tetrahydro-5H-pyrazolo[4,3-c]pyridine-5-carboxamide] | < 20 | 27.5 |  |  | 
11 | CNC(=O)N1CCc2c(c(N3CCCc4cc(-c5cnn(CC(=O)NCCNc6ccc7c(c6)C(=O)N(C6CCC(=O)NC6=O)C7=O)c5)c(C(F)F)cc43)nn2C2CCOCC2)C1 (stereo not shown) [P-016, 3-(7-(Difluoromethyl)-6-(1-(2-((2-((2-(2,6-dioxopiperidin-3-yl)-1,3-dioxoisoindolin-5-yl)amino)ethyl)amino)-2-oxoethyl)-1H-pyrazol-4-yl)-3,4-dihydroquinolin-1(2H)-yl)-N-methyl-1-(tetrahydro-2H-pyran-4-yl)-1,4,6,7-tetrahydro-5H-pyrazolo[4,3-c]pyridine-5-carboxamide] |  |  | < 20 | 3040 | 
12 | CC(=O)N1CCc2c(c(N3CCCc4cc(-c5cnn(CC(=O)NCCCCCCCNc6ccc7c(c6)C(=O)N(C6CCC(=O)NC6=O)C7=O)c5)c(C(F)F)cc43)nn2C2CCOCC2)C1 (stereo not shown) [P-133, 2-(4-(1-(5-acetyl-1-(tetrahydro-2H-pyran-4-yl)-4,5,6,7-tetrahydro-1H-pyrazolo[4,3-c]pyridin-3-yl)-7-(difluoromethyl)-1,2,3,4-tetrahydroquinolin-6-yl)-1H-pyrazol-1-yl)-N-(7-((2-(2,6-dioxopiperidin-3-yl)-1,3-dioxoisoindolin-5-yl)amino)heptyl)acetamide] | > 80 | 4 |  |  | 
13 | CNC(=O)N1CCc2c(c(N3CCCc4cc(-c5cnn(CC(=O)NCCOCCC(=O)N[C@H](C(=O)N6C[C@H](O)CC6C(=O)NCc6ccc(-c7scnc7C)cc6)C(C)(C)C)c5)c(C(F)F)cc43)nn2C2CCOCC2)C1 (stereo in doubt) [P-074, 3-(7-(Difluoromethyl)-6-(1-(2-((2-(3-(((S)-1-((2S,4R)-4-hydroxy-2-((4-(4-methylthiazol-5-yl)benzyl)carbamoyl)pyrrolidin-1-yl)-3,3-dimethyl-1-oxobutan-2-yl)amino)-3-oxopropoxy)ethyl)amino)-2-oxoethyl)-1H-pyrazol-4-yl)-3,4-dihydroquinolin-1(2H)-yl)-N-methyl-1-(tetrahydro-2H-pyran-4-yl)-1,4,6,7-tetrahydro-5H-pyrazolo[4,3-c]pyridine-5-carboxamide] |  | > 10000 |  |  | 
